Among the data in patent US20140249135A1, “PIM KINASE INHIBITORS AND METHODS OF THEIR USE” (NOVARTIS AG, priority 2007, published 2014) are IC50 values, retold here.

Common to all, as to type: biochemical
The target of one experiment is Pim1 kinase (Homo sapiens, UniProt P11309). The experiment in a line: Pim1 ATP depletion assay.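 Also: Luciferase-luciferin luminescence readout of residual ATP after PIM1 transfers phosphate to a peptide substrate, 40 µM ATP added, reaction run to roughly half ATP consumption.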 As to conditions: Pim1 ATP depletion assay; read-out: IC50 (μM) PIM1.
A further experiment deals with Pim2 kinase (Homo sapiens, UniProt Q9P1W9). Kind of experiment: Pim2 ATP depletion assay.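 Also: Luciferase-based luminescent readout of ATP remaining after PIM2 phosphorylates a BAD peptide, final 5 nM enzyme, 4 µM ATP, 10 µM peptide, 2.5% DMSO, run to roughly half ATP consumption.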 To be noted: read-out: IC50 (μM) PIM2.
The next experiment has as its target Pim3 kinase (Homo sapiens, UniProt Q86V86). The experiment in a line: Pim3 ATP depletion assay. As to conditions: read-out: IC50 (μM) PIM3.

Sequence of Pim2 kinase (Q9P1W9 whole entry): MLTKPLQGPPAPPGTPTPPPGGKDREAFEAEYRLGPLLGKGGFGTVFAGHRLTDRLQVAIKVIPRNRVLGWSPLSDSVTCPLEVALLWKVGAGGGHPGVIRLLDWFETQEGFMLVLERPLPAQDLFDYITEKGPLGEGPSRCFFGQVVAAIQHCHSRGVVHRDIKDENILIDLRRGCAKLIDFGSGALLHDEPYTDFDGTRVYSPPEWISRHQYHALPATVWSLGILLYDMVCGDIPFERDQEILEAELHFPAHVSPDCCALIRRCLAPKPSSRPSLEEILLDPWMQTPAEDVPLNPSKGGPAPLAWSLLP
Sequence of Pim1 kinase (P11309 whole entry): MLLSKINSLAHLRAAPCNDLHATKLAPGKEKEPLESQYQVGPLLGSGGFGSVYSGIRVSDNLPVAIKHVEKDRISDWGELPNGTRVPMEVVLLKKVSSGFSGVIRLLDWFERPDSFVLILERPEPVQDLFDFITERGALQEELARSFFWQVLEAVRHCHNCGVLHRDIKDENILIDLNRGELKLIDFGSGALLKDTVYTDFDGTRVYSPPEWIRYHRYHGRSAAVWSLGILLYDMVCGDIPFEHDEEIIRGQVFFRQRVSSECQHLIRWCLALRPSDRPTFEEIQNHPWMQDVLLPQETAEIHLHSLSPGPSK

Turning to `CC(=O)c1ccc(N2CCCC(N)C2)c(NC(=O)c2nccnc2N)c1` (stereo not drawn) [Example 221, N-[5-acetyl-2-(3-aminopiperidin-1-yl)phenyl]-3-aminopyrazine-2-carboxamide], the IC50 on Pim1 kinase was less than 1 µM; at Pim2 kinase it was 1 to 10 µM; at Pim3 kinase, less than 1 µM.

Take `CS(=O)(=O)c1ccc(N2CCC(N)CC2)c(NC(=O)c2nccnc2N)c1` [Example 234, 3-amino-N-[2-(4-aminopiperidin-1-yl)-5-(methylsulfonyl)phenyl]-pyrazine-2-carboxamide]: the concentration for half-maximal inhibition (IC50) at Pim1 kinase is 1 to 10 µM; on Pim2 kinase it was more than 25 µM; at Pim3 kinase, 10 to 25 µM.

As for `Nc1nccnc1C(=O)Nc1cc(C(=O)C2CC2)ccc1N1CCNCC1` [Example 245, 3-amino-N-[5-(cyclopropyl-carbonyl)-2-piperazin-1-yl-phenyl]pyrazine-2-carboxamide], the IC50 on Pim1 kinase is more than 25 µM; at Pim2 kinase, more than 25 µM; at Pim3 kinase, 10 to 25 µM.

On to `Nc1cnc(-c2c(F)cccc2F)nc1C(=O)Nc1cnccc1N1C[C@H](N)C[C@H](N)C1` [Example 246, 5-Amino-2-(2,6-difluoro-phenyl)-pyrimidine-4-carboxylic acid (3,5-diamino-3,4,5,6-tetra-hydro-2H-[1,4′]bipyridinyl-3′-yl)-amide], for which the IC50 at Pim1 kinase, at Pim2 kinase and at Pim3 kinase was less than 1 µM each time.

For the compound `Nc1cnc(-c2ccccc2F)nc1C(=O)Nc1cnccc1N1C[C@H](N)C[C@H](N)C1` [Example 247, 5-Amino-2-(2-fluoro-phenyl)-pyrimidine-4-carboxylic acid (3,5-diamino-3,4,5,6-tetrahydro-2H-[1,4′]bipyridinyl-3′-yl)-amide], the IC50 on Pim1 kinase, on Pim2 kinase and at Pim3 kinase was less than 1 µM throughout.

As to `Nc1ccc(-c2ccccc2F)nc1C(=O)Nc1cnccc1N1C[C@H](N)C[C@H](N)C1` [Example 248, 3-Amino-6-(2-fluoro-phenyl)-pyridine-2-carboxylic acid (3,5-diamino-3,4,5,6-tetrahydro-2H-[1,4′]bipyridinyl-3′-yl)-amide], the IC50 on Pim1 kinase, on Pim2 kinase and on Pim3 kinase was less than 1 µM throughout.

Consider `N[C@H]1CCCN(c2ccncc2NC(=O)c2ccnc(-c3ccccc3F)n2)C1` [Example 250, N-{4-[(3S)-3-aminopiperidin-1-yl]pyridin-3-yl}-2-(2-fluoro-phenyl)pyrimidine-4-carbox-amide], for which the IC50 on Pim1 kinase, on Pim2 kinase and at Pim3 kinase was less than 1 µM each time.

On to `NCCC(=O)N1CCN(c2ccncc2NC(=O)c2nc(-c3ccccc3F)ccc2N)CC1` [Example 251, 3-Amino-6-(2-fluoro-phenyl)-pyridine-2-carboxylic acid {4-[4-(3-amino-propionyl)-piperazin-1-yl]-pyridin-3-yl}-amide], for which the IC50 at Pim1 kinase, on Pim2 kinase and at Pim3 kinase was less than 1 µM in each case.

Regarding `NCC(=O)N1CCN(c2ccncc2NC(=O)c2nc(-c3ccccc3F)ccc2N)CC1` [Example 252, 3-Amino-6-(2-fluoro-phenyl)-pyridine-2-carboxylic acid {4-[4-(2-amino-acetyl)-piperazin-1-yl]-pyridin-3-yl}-amide], the IC50 on Pim1 kinase, at Pim2 kinase and on Pim3 kinase was less than 1 µM in each case.

For `CC(C)NC(=O)c1ccc(F)c(-c2ccc(N)c(C(=O)Nc3cnccc3N3CC[C@@H](F)[C@H](N)C3)n2)c1` [Example 253, 3-Amino-6-(2-fluoro-5-isopropylcarbamoyl-phenyl)-pyridine-2-carboxylic acid (3-amino-4-fluoro-3,4,5,6-tetra-hydro-2H-[1,4′]bipyridinyl-3′-yl)-amide], the IC50 on Pim1 kinase, at Pim2 kinase and at Pim3 kinase was less than 1 µM throughout.

For the compound `Nc1ccc(-c2ccccc2F)nc1C(=O)Nc1cnccc1N1CCC(F)(F)C(N)C1` (stereo not drawn) [Example 254, 3-Amino-6-(2-fluoro-phenyl)-pyridine-2-carboxylic acid (3-amino-4,4-difluoro-3,4,5,6-tetra-hydro-2H-[1,4′]bipyridinyl-3′-yl)-amide], the IC50 at Pim1 kinase, on Pim2 kinase and at Pim3 kinase was less than 1 µM in each case.

Take `CC(C)NC(=O)c1ccc(F)c(-c2ccc(N)c(C(=O)Nc3cnccc3N3CCC(F)(F)C(N)C3)n2)c1` (stereo not drawn) [Example 255, 3-Amino-6-(2-fluoro-5-isopropylcarbamoyl-phenyl)-pyridine-2-carboxylic acid (3-amino-4,4-difluoro-3,4,5,6-tetra-hydro-2H-[1,4′]bipyridinyl-3′-yl)-amide]: the IC50 on Pim1 kinase, on Pim2 kinase and on Pim3 kinase was less than 1 µM in each case.

As to `Nc1ccc(-c2nccs2)nc1C(=O)Nc1cnccc1N1CC[C@@H](F)[C@H](N)C1` [Example 257, 3-amino-N-{4-[(3R,4R)-3-amino-4-fluoropiperidin-1-yl]pyridin-3-yl}-6-(1,3-thiazol-2-yl)pyridine-2-carboxamide], the IC50 at Pim1 kinase, at Pim2 kinase and at Pim3 kinase was less than 1 µM in each case.

Regarding `CC(C)NC(=O)c1ccc(F)c(-c2ccc(N)c(C(=O)Nc3cnccc3N3CC[C@H](F)[C@H](N)C3)n2)c1` [Example 258, 3-Amino-6-(2-fluoro-5-isopropylcarbamoyl-phenyl)-pyridine-2-carboxylic acid (3-amino-4-fluoro-3,4,5,6-tetra-hydro-2H-[1,4′]bipyridinyl-3′-yl)-amide], the IC50 on Pim1 kinase, on Pim2 kinase and at Pim3 kinase was less than 1 µM each time.

On to `Nc1cc(F)c(Br)nc1C(=O)Nc1cnccc1N1CCC[C@H](N)C1` [Example 259, 3-amino-N-{4-[(3S)-3-amino-piperidin-1-yl]pyridin-3-yl}-6-bromo-5-fluoropyridine-2-carboxamide], for which the IC50 at Pim1 kinase, at Pim2 kinase and at Pim3 kinase was less than 1 µM each time.

In the case of `Nc1cc(F)cnc1C(=O)Nc1cnccc1N1CCC[C@H](N)C1` [Example 260, 3-amino-N-{4-[(3S)-3-amino-piperidin-1-yl]pyridin-3-yl}-5-fluoropyridine-2-carboxamide], the IC50 on Pim1 kinase, at Pim2 kinase and on Pim3 kinase was less than 1 µM in each case.

Consider `Nc1cnc(-c2ccccc2)nc1C(=O)Nc1cnccc1N1CCCC(O)(C(F)(F)F)C1` (stereo not drawn) [Example 262, 5-Amino-2-phenyl-pyrimidine-4-carboxylic acid (3-hydroxy-3-trifluoromethyl-3,4,5,6-tetra-hydro-2H-[1,4′]bipyridinyl-3′-yl)-amide], for which the IC50 at Pim1 kinase is less than 1 µM; on Pim2 kinase, 1 to 10 µM; on Pim3 kinase, less than 1 µM.

Regarding `Nc1cnc(-c2ccccc2F)nc1C(=O)Nc1cnccc1N1CCC[C@H](N)C1` [Example 263, 5-Amino-2-(2-fluoro-phenyl)-pyrimidine-4-carboxylic acid (3-amino-3,4,5,6-tetrahydro-2H-[1,4′]bipyridinyl-3′-yl)-amide], the IC50 on Pim1 kinase, at Pim2 kinase and at Pim3 kinase was less than 1 µM in each case.
